Assay results reported in US20240116910A1, “Heterocycles as WIP1 Inhibitors” (PMV Pharmaceuticals, Inc., priority 2022, published 2024).

Target: recombinant His-tag Wip1(2-420) protein (amino acids #2-420) (Homo sapiens (Human), UniProt O15297)
Assay: Wip1(2-420) phosphatase enzyme FDP assay
Format: biochemical
Settings: fluorescein diphosphate (FDP) substrate, RT 2 hours, fluorescence Ex485/Em535; read-out: WIP1 (Truncated 2-420) FDP Assay: IC50

Chain of recombinant His-tag Wip1(2-420) protein (amino acids #2-420) (O15297 2-420): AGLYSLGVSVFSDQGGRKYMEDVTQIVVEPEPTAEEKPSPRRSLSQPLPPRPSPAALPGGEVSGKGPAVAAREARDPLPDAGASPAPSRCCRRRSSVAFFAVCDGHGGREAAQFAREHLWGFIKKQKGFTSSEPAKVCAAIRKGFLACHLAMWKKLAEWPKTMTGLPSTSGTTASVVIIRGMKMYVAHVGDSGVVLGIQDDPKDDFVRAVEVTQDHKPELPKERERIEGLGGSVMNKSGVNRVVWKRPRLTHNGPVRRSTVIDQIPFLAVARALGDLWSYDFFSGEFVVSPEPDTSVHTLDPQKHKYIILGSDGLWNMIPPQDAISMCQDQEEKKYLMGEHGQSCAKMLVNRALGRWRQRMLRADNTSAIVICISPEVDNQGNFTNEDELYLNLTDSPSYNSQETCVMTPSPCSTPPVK

In order of falling IC50:
1. Cc1ncc(Cl)cc1N[C@@H](C)c1ncc(C(=O)N[C@@H](CC2CCCC2)C(=O)NC2CC2)s1 [Compound 311, (2S)-2-({2-[(1S)-1-[(5-chloro-2-methylpyridin-3-yl)amino]ethyl]-1,3-thiazol-5-yl}formamido)-3-cyclopentyl-N-cyclopropylpropanamide]  1550 nM
2. Cc1ncc(Cl)cc1N[C@@H](C)c1ncc(C(=O)N[C@@H](CC2CCCC2)C(=O)NC23CC(C2)C3)s1 [Compound 310, (2S)-N-{bicyclo[1.1.1]pentan-1-yl}-2-({2-[(1S)-1-[(5-chloro-2-methylpyridin-3-yl)amino]ethyl]-1,3-thiazol-5-yl}formamido)-3-cyclopentylpropanamide]  1020 nM
3. C[C@@H](Nc1cc(Cl)cnc1C(=O)O)c1ccc(C(=O)N[C@@H](CC2CCCC2)C(=O)NC2CC2)s1 [Compound 274, 5-chloro-3-{[(1R)-1-(5-{[(1S)-2-cyclopentyl-1-(cyclopropylcarbamoyl)ethyl]carbamoyl}thiophen-2-yl)ethyl]amino}pyridine-2-carboxylic acid]  811 nM
4. COc1cccc(-c2ncc(Cl)cc2N[C@H](C)c2ccc(C(=O)N[C@@H](CC3CCCC3)C(=O)NC3CC3)s2)c1 [Compound 268, (2S)-2-({5-[(1R)-1-{[5-chloro-2-(3-methoxyphenyl)pyridin-3-yl]amino}ethyl]thiophen-2-yl}formamido)-3-cyclopentyl-N-cyclopropylpropanamide]  482 nM
5. C[C@H](Nc1cccc(Cl)c1)c1ccc(C(=O)N[C@@H](CC2CCCC2)C(=O)NC2CC2)s1 [Compound 2, 5-[(1S)-1-(3-chloroanilino)ethyl]-N-[(1S)-1-(cyclopentylmethyl)-2-(cyclopropylamino)-2-oxo-ethyl]thiophene-2-carboxamide]  232 nM
6. CC(Nc1cccc(Cl)c1)c1ccc(C(=O)N[C@@H](CC2CCCC2)C(=O)NC2CC2)s1 (stereo partly drawn) [Compound 4, 5-[1-(3-chloroanilino)ethyl]-N-[(1S)-1-(cyclopentylmethyl)-2-(cyclopropylamino)-2-oxo-ethyl]thiophene-2-carboxamide]  79 nM
7. CC(Nc1ccc(F)c(Cl)c1)c1ccc(C(=O)N[C@@H](CC2CCCC2)C(=O)NC2CC2)s1 (stereo partly drawn) [Compound 3, 5-[1-(3-chloro-4-fluoro-anilino)ethyl]-N-[(1S)-1-(cyclopentylmethyl)-2-(cyclopropylamino)-2-oxo-ethyl]thiophene-2-carboxamide]  60 nM
8. Cc1ncc(Cl)cc1N[C@H](Cc1ccccc1)c1ccc(C(=O)N[C@@H](CC2CCCC2)C(=O)NC2CC2)s1 [Compound 261, (2S)-2-({5-[(1R)-1-[(5-chloro-2-methylpyridin-3-yl)amino]-2-phenylethyl]thiophen-2-yl}formamido)-3-cyclopentyl-N-cyclopropylpropanamide]  40 nM
9. Cc1ncc(Cl)cc1NC(C)(C)c1ccc(C(=O)N[C@@H](CC2CCCC2)C(=O)NC23CC(C#N)(C2)C3)s1 [Compound 266, (2S)-2-[(5-{2-[(5-chloro-2-methylpyridin-3-yl)amino]propan-2-yl}thiophen-2-yl)formamido]-N-{3-cyanobicyclo[1.1.1]pentan-1-yl}-3-cyclopentylpropanamide]  20 nM
10. C[C@H](Nc1cc(Cl)cnc1C(=O)O)c1ccc(C(=O)N[C@@H](CC2CCCC2)C(=O)NC2CC2)s1 [Compound 269, 5-chloro-3-{[(1S)-1-(5-{[(1S)-2-cyclopentyl-1-(cyclopropylcarbamoyl)ethyl]carbamoyl}thiophen-2-yl)ethyl]amino}pyridine-2-carboxylic acid]  14 nM
11. Cc1ncc(Cl)cc1N[C@@H](C)c1ccc(C(=O)N[C@@H](C[C@H]2CCC3C[C@@H]32)C(=O)NC2CC2)s1 (stereo partly drawn) [Compound 272, (2S)-3-[(2R)-bicyclo[3.1.0]hexan-2-yl]-2-({5-[(1S)-1-[(5-chloro-2-methylpyridin-3-yl)amino]ethyl]thiophen-2-yl}formamido)-N-cyclopropylpropanamide]  14 nM
12. Cc1ncc(Cl)cc1N[C@@H](C)c1ccc(C(=O)N[C@@H](CC2CCCC2)C(=O)NC2CCC(O)C2)s1 (stereo partly drawn) [Compound 263, (2S)-2-({5-[(1S)-1-[(5-chloro-2-methylpyridin-3-yl)amino]ethyl]thiophen-2-yl}formamido)-3-cyclopentyl-N-(3-hydroxycyclopentyl)propanamide]  13 nM
13. COc1cccc(-c2ncc(Cl)cc2N[C@@H](C)c2ccc(C(=O)N[C@@H](CC3CCCC3)C(=O)NC3CC3)s2)c1 [Compound 267, (2S)-2-({5-[(1S)-1-{[5-chloro-2-(3-methoxyphenyl)pyridin-3-yl]amino}ethyl]thiophen-2-yl}formamido)-3-cyclopentyl-N-cyclopropylpropanamide]  10 nM
14. Cc1ncc(Cl)cc1N[C@@H](C)c1ccc(C(=O)N[C@@H](CC2CCCC2)C(=O)NCCF)s1 [Compound 271, (2S)-2-({5-[(1S)-1-[(5-chloro-2-methylpyridin-3-yl)amino]ethyl]thiophen-2-yl}formamido)-3-cyclopentyl-N-(2-fluoroethyl)propanamide]  10 nM
15. Cc1ncc(Cl)cc1NC(C)(C)c1ccc(C(=O)N[C@@H](CC2CCCC2)C(=O)N[C@H]2C[C@H](F)C2)s1 [Compound 275, (2S)-2-[(5-{2-[(5-chloro-2-methylpyridin-3-yl)amino]propan-2-yl}thiophen-2-yl)formamido]-3-cyclopentyl-N-[(1r,3r)-3-fluorocyclobutyl]propanamide]  10 nM
16. CNC(=O)[C@H](CC1CCCCC1)NC(=O)c1ccc([C@H](C)Nc2cc(Cl)cnc2C)s1 [Compound 265, (2S)-2-({5-[(1S)-1-[(5-chloro-2-methylpyridin-3-yl)amino]ethyl]thiophen-2-yl}formamido)-3-cyclohexyl-N-methylpropanamide]  8 nM
17. CCNC(=O)[C@H](CC1CCCCC1)NC(=O)c1ccc([C@H](C)Nc2cc(Cl)cnc2C)s1 [Compound 264, (2S)-2-({5-[(1S)-1-[(5-chloro-2-methylpyridin-3-yl)amino]ethyl]thiophen-2-yl}formamido)-3-cyclohexyl-N-ethylpropanamide]  7 nM
18. C[C@@H](Nc1cccc(Cl)c1)c1ccc(C(=O)N[C@@H](CC2CCCC2)C(=O)NC2CC2)s1 [Compound 1, 5-[1-(3-chloroanilino)ethyl]-N-[(1S)-1-(cyclopentylmethyl)-2-(cyclopropylamino)-2-oxo-ethyl]thiophene-2-carboxamide]  6 nM
19. Cc1ncc(Cl)cc1N[C@@H](Cc1ccccc1)c1ccc(C(=O)N[C@@H](CC2CCCC2)C(=O)NC2CC2)s1 [Compound 262, (2S)-2-({5-[(1S)-1-[(5-chloro-2-methylpyridin-3-yl)amino]-2-phenylethyl]thiophen-2-yl}formamido)-3-cyclopentyl-N-cyclopropylpropanamide]  6 nM
20. Cc1cc(NC(=O)[C@H](CC2CCCC2)NC(=O)c2ccc(C(C)(C)Nc3cc(Cl)cnc3C)s2)ccn1 [Compound 270, (2S)-2-[(5-{2-[(5-chloro-2-methylpyridin-3-yl)amino]propan-2-yl}thiophen-2-yl)formamido]-3-cyclopentyl-N-(2-methylpyridin-4-yl)propanamide]  6 nM
21. COc1ccc(NC(=O)[C@H](CC2CCCC2)NC(=O)c2ccc([C@H](C)Nc3cc(Cl)cnc3C)s2)cn1 [Compound 276, (2S)-2-({5-[(1S)-1-[(5-chloro-2-methylpyridin-3-yl)amino]ethyl]thiophen-2-yl}formamido)-3-cyclopentyl-N-(6-methoxypyridin-3-yl)propanamide]  5 nM

Target: recombinant His-tag Wip1 full length protein (amino acids #1-605) (Homo sapiens (Human), UniProt O15297)
Assay: Wip1 full length phosphatase enzyme FDP assay
Format: biochemical
Settings: fluorescein diphosphate (FDP) substrate, RT 2 hours, fluorescence Ex485/Em535
Procedure: The Human Wip1 (2-420, aa 2-420) or Wip1 full length (aa 1-605) DNA sequence was codon optimized and synthesized by Genscript for insect cell expression. The open reading frame of Wip1(2-420) with a N-terminal-His6 affinity tag followed by a TEV cleavage site was subcloned sites into the pFastBac1 expression vector. The recombinant bacmid DNA was transfected in Sf9 insect cells for baculovirus production. After 72 hours infection, the Sf9 cells were harvested by centrifugation and resuspended in lysis buffer containing 50 mM Tris/HCl, pH 8.0, 500 mM NaCl, 20% glycerol, Benzonase 0.5% CHAPS and Roche cOmplete™ EDTA free protease inhibitors. Cells were disrupted with microfluidizer and the debris was removed by centrifugation at 185,000 g for 1 hour. The supernatant was subjected to HisTrap FF for affinity purification. Proteins were eluted with a linear gradient of 0-500 mM imidazole in HisTrap buffer containing 50 mM Tris/HCl, pH 8.0, 500 mM NaCl and 20% glycerol, 0.05% CHAPS. The eluted protein was dialyzed against dialysis buffer (20 mM MES, 100 mM NaCl, 20% glycerol, 0.5 mM TCEP, 0.05% CHAPS) followed purification via HiTrap SP HP column. The protein was eluted with a gradient of 100 mM-2 M NaCl in dialysis buffer. His6-[…] was finally concentrated and loaded onto a size-exclusion column (NiLoad 16/600 Superdex 200 pg, GE Healthcare) pre-equilibrated with 50 mM MOPS (pH 7.5), 200 mM NaCl, 20% glycerol, 1 mM TCEP, 0.05% CHAPS and 0.1 mM EGTA. The peak fractions containing purified Nis6-Wip1(2-420) were pooled and concentrated to 1.0 mg/mL and flash frozen at −80° C.
Wip1 Length and Wip1(2-420) Phosphatase Enzyme FDP Assays.
Test compounds (252 mM stock in DMSO) were diluted 3 folds in series in DMSO and 1.2 μl per well were added into 384-well polypropylene black plates (Nunc). Twelve μl per well of Assay Buffer (100 mM NaCl, 50 mM MOPS, pH 7.5, 0.8 mM CHAPS, 0.1 mM EGTA, 30 mM MgCl2, 0.3 mM TCEP, 0.2 mg/mL BSA) was added followed by […] per well of 50.4 nM recombinant His-tag Wip1 full length protein (amino acids #1-605) or recombinant His-tag Wip1(2-420) protein (amino acids #2-420) in Assay Buffer and the plate was incubated at RT (22° C.) for 5 min. Ten mM of fluorescein diphosphate (FDP) in DMSO was diluted to […] in Assay Buffer and […] per well was added to the plate and incubated at RT (22° C.) for 2 hours. […] per well of 64.1 mM EDTA in water were added to stop the enzyme reaction. The plate was centrifuged at 1,200 rpm (Eppendorf 5810R Plate centrifuge) for 1 minute and fluorescence intensity (Ex485/Em535) was measured on Perkin Elmer Victor Reader. EC50 values were calculated using either Prism (GraphPad) or ActivityBase software (IDBS), The IC50 results are provided in Table M.

Chain of recombinant His-tag Wip1 full length protein (amino acids #1-605) (O15297 whole entry): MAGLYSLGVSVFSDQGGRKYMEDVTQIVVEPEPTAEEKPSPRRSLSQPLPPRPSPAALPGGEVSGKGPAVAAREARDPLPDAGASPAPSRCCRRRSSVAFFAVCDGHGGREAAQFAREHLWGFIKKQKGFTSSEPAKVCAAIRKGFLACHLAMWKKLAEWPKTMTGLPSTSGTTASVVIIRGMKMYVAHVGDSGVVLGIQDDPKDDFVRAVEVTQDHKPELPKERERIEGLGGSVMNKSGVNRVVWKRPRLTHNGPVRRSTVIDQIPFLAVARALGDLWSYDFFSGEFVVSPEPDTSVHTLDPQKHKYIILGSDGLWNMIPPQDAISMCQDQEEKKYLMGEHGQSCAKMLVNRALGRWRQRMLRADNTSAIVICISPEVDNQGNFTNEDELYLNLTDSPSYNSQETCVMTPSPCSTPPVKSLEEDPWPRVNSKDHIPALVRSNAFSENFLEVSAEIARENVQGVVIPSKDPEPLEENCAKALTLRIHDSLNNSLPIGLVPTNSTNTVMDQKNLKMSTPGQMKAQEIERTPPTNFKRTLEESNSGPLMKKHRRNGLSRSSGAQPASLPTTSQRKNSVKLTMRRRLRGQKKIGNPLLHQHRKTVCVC

In order of falling IC50:
1. C[C@H](Nc1cccc(Cl)c1)c1ccc(C(=O)N[C@@H](CC2CCCC2)C(=O)NC2CC2)s1 [Compound 2, 5-[(1S)-1-(3-chloroanilino)ethyl]-N-[(1S)-1-(cyclopentylmethyl)-2-(cyclopropylamino)-2-oxo-ethyl]thiophene-2-carboxamide]  117 nM
2. CC(Nc1ccc(F)c(Cl)c1)c1ccc(C(=O)N[C@@H](CC2CCCC2)C(=O)NC2CC2)s1 (stereo partly drawn) [Compound 3, 5-[1-(3-chloro-4-fluoro-anilino)ethyl]-N-[(1S)-1-(cyclopentylmethyl)-2-(cyclopropylamino)-2-oxo-ethyl]thiophene-2-carboxamide]  28 nM
3. CC(Nc1cccc(Cl)c1)c1ccc(C(=O)N[C@@H](CC2CCCC2)C(=O)NC2CC2)s1 (stereo partly drawn) [Compound 4, 5-[1-(3-chloroanilino)ethyl]-N-[(1S)-1-(cyclopentylmethyl)-2-(cyclopropylamino)-2-oxo-ethyl]thiophene-2-carboxamide]  15 nM
4. C[C@@H](Nc1cccc(Cl)c1)c1ccc(C(=O)N[C@@H](CC2CCCC2)C(=O)NC2CC2)s1 [Compound 1, 5-[1-(3-chloroanilino)ethyl]-N-[(1S)-1-(cyclopentylmethyl)-2-(cyclopropylamino)-2-oxo-ethyl]thiophene-2-carboxamide]  9 nM
